Values of other authors in patent US20150093449A1, “Method of Using Silicon Substituted Phosphates to Improve Healing of Bone and Soft Tissue” (priority 2009, published 2015).

Tested on: staph epidermis

In the case of silicon, the glycoprotein slime formation is given as “inhibits”.
